Results: patent US5324648A, “Substituted isocoumarins as serine protease inhibitors and anti-inflammatory agents” (Georgia Tech Research Corporation, priority 1992, dated 1994)
Read-outs that look alike come from different tables or passages of the source.

How the values were obtained:
[1] = target: T1, porcine pancreatic elastase (PPE) (Sus scrofa, UniProt P00772); test: Inactivation of porcine pancreatic elastase (PPE); type: biochemical; conditions: for kinact/KI: read-out: kobs/[I]
T1 construct: from tissue; host or cells: porcine pancreas (from the name)

[2] = target: T2, human leukocyte elastase (HLE) (Homo sapiens, UniProt P08246); test: Inactivation of human leukocyte elastase (HLE); type: biochemical
T2 construct: from tissue; host or cells: human leukocytes (from the name)
T2 sequence (P08246 30-267): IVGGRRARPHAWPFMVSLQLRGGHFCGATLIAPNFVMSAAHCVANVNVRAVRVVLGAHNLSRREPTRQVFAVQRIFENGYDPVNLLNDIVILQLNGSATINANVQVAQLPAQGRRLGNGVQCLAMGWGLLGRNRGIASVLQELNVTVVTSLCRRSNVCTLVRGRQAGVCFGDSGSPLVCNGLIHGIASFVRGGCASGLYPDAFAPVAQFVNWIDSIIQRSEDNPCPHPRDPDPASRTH

chymotrypsin = chymotrypsin (Bos taurus, UniProt P00766); test: Inactivation of chymotrypsin; type: biochemical, bovine
cathepsin G = target: T3, cathepsin G (Homo sapiens, UniProt P08311); test: Inactivation of cathepsin G; type: biochemical; set-up: percentage of inhibition: concentration or dose not given beside the values; conditions: for kinact/KI: read-out: kobs/[I]; for percentage of inhibition: after 5 min incubation
T3 construct: from tissue; host or cells: human leukocytes
T3 sequence (P08311 21-255): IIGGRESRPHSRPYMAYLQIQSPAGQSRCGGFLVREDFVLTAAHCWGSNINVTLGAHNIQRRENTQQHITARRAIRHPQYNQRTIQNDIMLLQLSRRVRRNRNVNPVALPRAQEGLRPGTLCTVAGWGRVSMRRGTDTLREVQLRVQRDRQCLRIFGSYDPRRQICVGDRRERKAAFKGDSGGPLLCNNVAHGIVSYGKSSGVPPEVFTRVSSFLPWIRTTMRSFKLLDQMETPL

human thrombin = target: T4, human thrombin (Homo sapiens, UniProt P00734); test: Inactivation rate of human thrombin; type: biochemical; conditions: Table VIII; pH 7.5, 25° C; [I] 1.2-54 μM; read-out: kobs/[I]
T4 construct: human thrombin
Method: Inactivation rates of serine proteases by substituted isocoumarins were measured by the incubation method. An aliquot of inhibitor (25 or 50 μl) in Me2 SO was added to a buffered enzyme solution (0.01-2.3 μM) to initiate the inactivation. Aliquots (50 μl) were withdrawn at various intervals and the residual enzymatic activity was measured. Me2 SO concentration in the reaction mixture was 8-12% (v/v). 0.1 Hepes, 0.01M CaCl2, pH 7.5 buffer was utilized for trypsin and coagulation enzymes. 0.1M Hepes, 0.5M NaCl, pH 7.5 was utilized for other serine proteases. The inhibitor concentrations are shown in all the tables. Peptide thioesters or peptide nitroanilides with appropriate sequence were used as substrates for various serine proteases. All peptide thioester hydrolysis rates were measured with assay mixtures containing 4,4'-dithiodipyridine (ε324 =19800M^-1 cm^-1; Grasetti & Murray, Arch. Biochem. Biophys. 119, pp 41-49 (1967)). Peptide 4-nitroanilide nitroanilide hydrolysis was measured at 410 nm (ε410 =8800M^-1 cm^-1; Erlanger et al., Arch. Biochem. Biophys. 95, pp 271-278 (1961)). First order inactivation rate constant (kobs) were obtained from plots of ln (vt /vo) vs time, and the correlation coefficients were greater than 0.98.
^a Inhibition rates were measured in 0.1M Hepes, 0.01M CaCl2, pH
7.5 buffer, 8% Me2 SO and at 25° C.

[3] = Table XVI, pH 7.5, 25° C, [I] 0.04-2.0 mM
[4] = Table XVI, pH 7.5, 25° C, [I] 35-710 μM
[5] = pH 7.5, Table XVI, second order, equimolar inhibitor and enzyme, read-out: kobs/[I]
[6] = pH 7.5, Table XVI, biphasic plot, read-out: kobs/[I] (biphasic, first value)
[7] = pH 7.5, Table XVI, biphasic plot, read-out: kobs/[I] (biphasic, second value)
[8] = Table XVI, pH 7.5, 25° C, [I] 1.7-58 μM, read-out: kobs/[I]
[9] = Table XVI, pH 7.5, 25° C, [I] 0.07-710 μM, read-out: kobs/[I]
[10] = pH 7.5, Table XII, 2.5% Me2SO, 25° C, [I] 34-56 μM
[11] = pH 7.5, Table XII, 2.5% Me2SO, 25° C, [I] 0.7-1.9 μM, read-out: kobs/[I]
[12] = pH 7.5, Table XII, 2.5% Me2SO, 25° C, [I] 3.4-70 μM, read-out: kobs/[I]
[13] = pH 7.5, Table XII, 2.5% Me2SO, 25° C, [I] 8.7-87 μM

T1 sequence (P00772 27-266): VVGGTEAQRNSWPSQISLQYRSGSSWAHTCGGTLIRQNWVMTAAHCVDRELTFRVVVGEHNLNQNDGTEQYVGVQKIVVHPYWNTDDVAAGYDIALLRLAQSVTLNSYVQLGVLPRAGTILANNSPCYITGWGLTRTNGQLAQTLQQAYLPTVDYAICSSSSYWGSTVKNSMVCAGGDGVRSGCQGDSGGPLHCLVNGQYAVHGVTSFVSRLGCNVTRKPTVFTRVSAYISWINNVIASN

Row | SMILES | kinact/KI [1, 3] [M⁻¹ s⁻¹] | kinact/KI [2, 5] [M⁻¹ s⁻¹] | kinact/KI (cathepsin G; [4]) [M⁻¹ s⁻¹] | kinact/KI (chymotrypsin; [8]) [M⁻¹ s⁻¹] | also measured
1 | CCCOCCOc1oc(=O)c2cc(N)ccc2c1Cl | – | – | – | – | kobs/[I] [1, 3]: 0.5 M⁻¹ s⁻¹; kobs/[I] ([2]; Table XVI, pH 7.5, 25° C, [I] 0.07-710 μM): 33 M⁻¹ s⁻¹; kobs/[I] (chymotrypsin; Table XVI, pH 7.5, 25° C, [I] 1.7-58 μM): 140 M⁻¹ s⁻¹; kobs/[I] (cathepsin G; [4]): 2.6 M⁻¹ s⁻¹
2 | C[C@H](NC(=O)OC(C)(C)C)C(=O)N[C@@H](C)C(=O)Nc1ccc2c(Cl)c(OCCBr)oc(=O)c2c1 [7-(N-t-butyloxycarbonyl-L-alanylalanyl)amino-4-chloro-3-(2-bromoethoxy)isocoumarin] | 1670 | 230000 | 46 | – | kinact/KI (chymotrypsin; [6]): 2750 M⁻¹ s⁻¹; kinact/KI (chymotrypsin; [7]): 810 M⁻¹ s⁻¹
3 | CC(C)(C)OC(=O)N[C@@H](Cc1ccccc1)C(=O)Nc1ccc2c(Cl)c(OCCBr)oc(=O)c2c1 [7-(N-t-butyloxycarbonyl-L-phenylalanyl)amino-4-chloro-3-(2-bromoethoxy)isocoumarin] | 50 | – | – | 400 | percentage of inhibition (cathepsin G; Table XVI): 19%
4 | C[C@@H](NC(=O)Nc1ccc2c(Cl)c(OCCBr)oc(=O)c2c1)c1ccccc1 [7-(R-α-methylbenzyl)carbamoylamino-4-chloro-3-(2-bromoethoxy)isocoumarin] | 9900 | > 440000 | 77 | – | kinact/KI (chymotrypsin; [6]): 180 M⁻¹ s⁻¹; kinact/KI (chymotrypsin; [7]): 90 M⁻¹ s⁻¹
5 | C[C@H](NC(=O)Nc1ccc2c(Cl)c(OCCBr)oc(=O)c2c1)c1ccccc1 [7-(S-α-methylbenzyl)carbamoylamino-4-chloro-3-(2-bromoethoxy)isocoumarin] | 2660 | > 570000 | – | 440 | percentage of inhibition (cathepsin G; Table XVI): 21%
6 | CC(=O)Nc1ccc2c(Cl)c(OCCCBr)oc(=O)c2c1 [7-acetylamino-4-chloro-3-(3-bromopropoxy)isocoumarin] | 24 | – | 170 | 3980 | kinact/KI [2, 9]: 24400 M⁻¹ s⁻¹
7 | Nc1ccc2c(Cl)c(OCCBr)oc(=O)c2c1 [7-amino-4-chloro-3-(2-bromoethoxy)isocoumarin] | 1000 | – | 410 | 1160 | kinact/KI ([2]; pH 7.5, Table XVI, progress curve method, read-out: kobs/[I]): 200000 M⁻¹ s⁻¹
8 | CC(CBr)Oc1oc(=O)c2cc(N)ccc2c1Cl (centres unmarked) [7-amino-4-chloro-3-(2-bromoisopropoxy)isocoumarin] | 62 | – | 150 | 320 | kinact/KI [2, 9]: 24000 M⁻¹ s⁻¹
9 | Nc1ccc2c(Cl)c(OCCCBr)oc(=O)c2c1 [7-amino-4-chloro-3-(3-bromopropoxy)isocoumarin] | 10 | – | 210 | 790 | kinact/KI [2, 9]: 4000 M⁻¹ s⁻¹
10 | CCCOc1oc(=O)c2cc(N)ccc2c1Cl [7-amino-4-chloro-3-propoxyisocoumarin] | 4.3 | – | 61 | 375 | kinact/KI [2, 9]: 390 M⁻¹ s⁻¹
11 | O=C(NCc1ccccc1)Nc1ccc2c(Cl)c(OCCBr)oc(=O)c2c1 [7-benzylcarbamoylamino-4-chloro-3-(2-bromoethoxy)isocoumarin] | 3010 | 480000 | – | 890 | percentage of inhibition (cathepsin G; Table XVI): 23%
12 | O=C(NCc1ccccc1)Nc1ccc2c(Cl)c(OCCCBr)oc(=O)c2c1 [7-benzylcarbamoylamino-4-chloro-3-(3-bromopropoxy)isocoumarin] | 13 | – | – | 440 | kinact/KI [2, 9]: 15600 M⁻¹ s⁻¹; percentage of inhibition (cathepsin G; Table XVI): 21%
13 | CCCOc1oc(=O)c2cc(NC(=O)CCc3ccccc3)ccc2c1Cl [7-dihydrocinnamoylamino-4-chloro-3-propyloxyisocoumarin] | – | – | – | – | kinact/KI [1, 10]: 220 M⁻¹ s⁻¹; kinact/KI [2, 11]: > 250000 M⁻¹ s⁻¹; kinact/KI (chymotrypsin; [12]): 12000 M⁻¹ s⁻¹; kinact/KI (cathepsin G; [13]): 20 M⁻¹ s⁻¹
14 | CCCOc1oc(=O)c2cc(NC(=O)OCC)ccc2c1Cl [7-ethoxycarbonylamino-4-chloro-3-propyloxyisocoumarin] | – | – | – | – | kinact/KI [1, 10]: 1600 M⁻¹ s⁻¹; kinact/KI [2, 11]: > 181000 M⁻¹ s⁻¹; kinact/KI (chymotrypsin; [12]): 5200 M⁻¹ s⁻¹; kinact/KI (cathepsin G; [13]): 138 M⁻¹ s⁻¹
15 | CCCOc1oc(=O)c2cc(NC(=O)NCC)ccc2c1Cl [7-ethylcarbamoylamino-4-chloro-3-propyloxyisocoumarin] | – | – | – | – | kinact/KI [1, 10]: 80 M⁻¹ s⁻¹; kinact/KI [2, 11]: > 276000 M⁻¹ s⁻¹; kinact/KI (chymotrypsin; [12]): 120 M⁻¹ s⁻¹; kinact/KI (cathepsin G; [13]): 166 M⁻¹ s⁻¹
16 | CC(C)NC(=O)Nc1ccc2c(Cl)c(OCCBr)oc(=O)c2c1 [7-isopropylcarbamoylamino-4-chloro-3-(2-bromoethoxy)isocoumarin] | 4470 | 646000 | 77 | – | kinact/KI (chymotrypsin; [6]): 1340 M⁻¹ s⁻¹; kinact/KI (chymotrypsin; [7]): 380 M⁻¹ s⁻¹
17 | O=C(Nc1ccc2c(Cl)c(OCCBr)oc(=O)c2c1)Nc1cccc2ccccc12 [7-naphthylcarbamoylamino-4-chloro-3-(2-bromoethoxy)isocoumarin] | 76 | 390000 | – | 80 | percentage of inhibition (cathepsin G; Table XVI): 22%
18 | O=c1oc(OCCBr)c(Cl)c2ccc([N+](=O)[O-])cc12 [7-nitro-4-chloro-3-(2-bromoethoxy)isocoumarin] | 6330 | – | 710 | – | kinact/KI [2, 9]: 65600 M⁻¹ s⁻¹; kinact/KI (chymotrypsin; [5]): 98000 M⁻¹ s⁻¹
19 | CC(CBr)Oc1oc(=O)c2cc([N+](=O)[O-])ccc2c1Cl (centres unmarked) [7-nitro-4-chloro-3-(2-bromoisopropoxy)isocoumarin] | 1060 | – | 1660 | – | kinact/KI (chymotrypsin; [5]): 200000 M⁻¹ s⁻¹
20 | O=C(Cc1ccccc1)Nc1ccc2c(Cl)c(OCCBr)oc(=O)c2c1 [7-phenylacetylamino-4-chloro-3-(2-bromoethoxy)isocoumarin] | 4950 | 480000 | 70 | – | kinact/KI (chymotrypsin; [5]): 82000 M⁻¹ s⁻¹
21 | O=C(Cc1ccccc1)Nc1ccc2c(Cl)c(OCCCBr)oc(=O)c2c1 [7-phenylacetylamino-4-chloro-3-(3-bromopropoxy)isocoumarin] | 28 | – | – | – | kinact/KI [2, 9]: 32400 M⁻¹ s⁻¹; kinact/KI (chymotrypsin; [5]): 140000 M⁻¹ s⁻¹; percentage of inhibition (cathepsin G; Table XVI): 28%
22 | O=C(Nc1ccccc1)Nc1ccc2c(Cl)c(OCCCBr)oc(=O)c2c1 [7-phenylcarbamoylamino-4-chloro-3-(3-bromopropoxy)isocoumarin] | 4 | – | – | 180 | kinact/KI [2, 6]: 13800 M⁻¹ s⁻¹; kinact/KI [2, 7]: 2890 M⁻¹ s⁻¹; percentage of inhibition (cathepsin G; Table XVI): 17%
23 | O=c1oc(OCCBr)c(Cl)c2ccc(NC(=S)Nc3ccccc3)cc12 [7-phenylthiocarbamoylamino-4-chloro-3-(2-bromoethoxy)isocoumarin] | 1250 | > 480000 | 200 | – | kinact/KI (chymotrypsin; [5]): 39000 M⁻¹ s⁻¹
24 | CC(C)(C)CC(=O)Nc1ccc2c(Cl)c(OCCBr)oc(=O)c2c1 [7-t-butylacetylamino-4-chloro-3-(2-bromoethoxy)isocoumarin] | 3650 | – | 240 | 1070 | –
25 | CC(C)(C)NC(=O)Nc1ccc2c(Cl)c(OCCBr)oc(=O)c2c1 [7-t-butylcarbamoylamino-4-chloro-3-(2-bromoethoxy)isocoumarin] | 6600 | – | 56 | 320 | –
26 | N=C(N)SCCOc1oc(=O)c2cc(NC(=S)Nc3ccccc3)ccc2c1Cl [PhNHCSNH-CiTEtOIC, 7-phenylthiocarbamoylamino-4-chloro-3-(2-isothiureidoethoxy)isocoumarin] | – | – | – | – | kinact/KI (human thrombin): 21400 M⁻¹ s⁻¹
